In publication PMC11576293, “New series of 4,6-diaryl pyrimidines: facile synthesis and antiproliferative activity as dual EGFR/VEGFR-2 inhibitors” (Frontiers in Chemistry, 2024):
Several values for one entry are separate records, joined by “and”; a condition that tells them apart may be missing. Equal values may be shown once.

Legend:
Bcl-2 = Bcl-2 inhibition assay; type: cell-based, human; settings: A-549 cell line
Method: 4.2.8. Bcl-2 inhibition assay
Mix all reagents thoroughly without foaming before use. Wash the microwells twice with approximately 300 μL Wash Buffer per well with thorough aspiration of microwell contents between washes. Take caution not to scratch the surface of the microwells. After the last wash, empty the wells and tap microwell strips on absorbent pad or paper towel to remove excess Wash Buffer. Use the microwell strips immediately after washing or place upside down on a wet absorbent paper for not longer than 15 minutes. […] Add 100 μL of Sample […]
Diluent in duplicate to all standard wells and to the blank wells. Prepare standard (1:2 dilution) in duplicate ranging from 32 ng/mL to 0.5 ng/mL. Add 100 μL of Sample Diluent, in duplicate, to the blank wells. Add 80 μL of Sample Diluent, in duplicate, to the sample wells. Add 20 μL of each Sample, in duplicate, to the designated wells. Add 50 μL of diluted biotin-conjugate to all wells, including the blank wells. Cover with a plate cover and incubate at room temperature, on a microplate shaker at 100 rpm if available, for 2 hours. Remove plate cover and empty the wells.
Wash microwell strips 3 times as described in step 2. Add 100 μL of diluted Streptavidin-HRP to all wells, including the blank wells. Cover with a plate cover and incubate at room temperature, on a microplate shaker at 100 rpm if available, for 1 hour. Remove plate cover and empty the wells.
Wash microwell strips 3 times as described in step 2. Proceed to the next step. Pipette 100 μl of mixed TMB Substrate Solution to all wells, including the blanks. Incubate the microwell strips at room temperature (18° to 25°C) for about 15 minutes, if available on a rotator set at 100 rpm.
Avoid direct exposure to intense light. The point, at which the substrate reaction is stopped, is often determined by the ELISA reader. Many ELISA readers record absorbance only up to 2.0
O.D. Therefore, the color development within individual microwells must be watched by the person running the assay and the substrate reaction stopped before positive wells are no longer properly detectable. Stop the enzyme reaction by quickly pipetting 100 μL of Stop Solution into each well, including the blank wells. It is important that the Stop Solution is spread quickly and uniformly throughout the microwells to completely inactivate the enzyme. Results must be read immediately after the Stop Solution is added or within one hour i f the microwell strips are stored at 2 - 8°C in the dark. Read absorbance of each microwell on a spectrophotometer using 450 nm as the primary wavelength.

Bax = Bax activation assay; type: cell-based, human; settings: for Bax Conc: A-549 cancer cells
Method: 4.2.7. Bax activation assay
Bring all reagents, except the human Bax-α Standard, to room temperature for at least 30 minutes prior to opening. The human Bax-α Standard solution should not be left at room temperature for more than 10 minutes. All standards, controls and samples should be run in duplicate. Refer to the Assay Layout Sheet to determine the number of wells to be used and put any remaining wells with the desiccant back into the pouch and seal the ziploc. Store unused wells at 4 °C. Pipet 100 μL of Assay Buffer into the S0 (0 pg/mL standard) wells. Pipet 100 μL of Standards #1 through #6 into the appropriate wells. Pipet 100 μL of the Samples into the appropriate wells. Tap the plate gently to mix the contents. Seal the plate and incubate at room temperature on a plate shaker for 1 hour at ~500 rpm. Empty the contents of the wells and wash by adding 400 μL of wash solution to every well. Repeat the wash 4 more times for a total of 5 washes. After the final wash, empty or aspirate the wells and firmly tap the plate on a lint free paper towel to remove any remaining wash buffer.
Pipet 100 μL of yellow Antibody into each well, except the Blank. Seal the plate and incubate at room temperature on a plate shaker for 1 hour at ~500 rpm. Empty the contents of the wells and wash by adding 400 μL of wash solution to every well. Repeat the wash 4 more times for a total of 5 washes. After the final wash, empty or aspirate the wells and firmly tap the plate on a lint free paper towel to remove any remaining wash buffer. Add 100 μL of blue Conjugate to each well, except the Blank. Seal the plate and incubate at room temperature on a plate shaker for 30 minutes […]
Pipet 100 μL of Substrate Solution into each well. Incubate for 30 minutes at room temperature on a plate shaker at ~500 rpm. Pipet 100 μL Stop Solution to each well. Blank the plate reader against the Blank wells, read the optical density at 450 nm. Calculate the average net Optical Density (OD) bound for each standard and sample by subtracting the average Blank OD from the average OD for each standard and sample. Using linear graph paper, plot the Average Net OD for each standard versus Bax concentration in each standard. Approximate a straight line through the points.
The concentration of Bax in the unknowns can be determined by interpolation. […]

| Compound | Bcl-2 Conc (Bcl-2) [ng/mL] | Bax Conc (Bax) | Bcl-2 Fold reduction (Bcl-2; versus control) [fold] | Bax Fold change (Bax; compared to untreated A-549 cancer cells) [fold] |
| --- | --- | --- | --- | --- |
| COc1ccc(CSc2nc(-c3ccc(OC)cc3)cc(-c3cccc(OC)c3)n2)cc1 [Compound 22, 2-(4-Methoxybenzylthio)-6-(3-methoxyphenyl)-4-(4-methoxyphenyl)pyrimidine] | 0.90 | 294 pg/mL and 294 ± 6 pg/mL | – | – |
| COc1ccc(CSc2nc(-c3ccc(Cl)cc3)cc(-c3ccc(OC)c(OC)c3)n2)cc1 [Compound 29, 2-(4-Methoxybenzylthio)-4-(4-chlorophenyl)-6-(3,4-dimethoxyphenyl)pyrimidine] | 1.15 | 278 pg/mL and 278 ± 5 pg/mL | 5 | 35 |
